Assay results reported in ChEMBL document CHEMBL4673353, “Switching a Xanthine Oxidase Inhibitor to a Dual-Target Antagonist of P2Y and P2Y as an Oral Antiplatelet Agent with a Wider Therapeutic Window in Rats than Ticagrelor” (J Med Chem, 2020).

How the values were obtained:
[1] = biological target: CYP2E1 (Homo sapiens, UniProt P05181); experiment: Inhibition of CYP2E1 in human liver microsomes at 10 uM using chlorzoxazone as substrate preincubated for 5 mins followed by NADPH generating system addition and measured after 120 mins by LC-MS/MS analysis relative to control; assay type: ADME; conditions: probe chlorzoxazone, time 125 min
[2] = Metabolic stability of compound in human liver microsomes assessed as elimination half-life at 0.2 uM in presence of NADPH by LC-MS/MS analysis; assay type: ADME, Microsome; conditions: read-out: beta t1/2
[3] = Elimination half-life in male Sprague-Dawley rat at 10 mg/kg, iv administered as single dose by LC-MS analysis; assay type: ADME, organism-based; conditions: in vivo, read-out: beta t1/2 (converted)
[4] = Metabolic stability of compound in rat liver microsomes assessed as elimination half-life at 0.2 uM in presence of NADPH by LC-MS/MS analysis; assay type: ADME, Microsome; conditions: read-out: beta t1/2
[5] = Stability of compound in simulated intestinal fluid assessed as parent compound remaining at 10 uM after 12 hrs by HPLC analysis relative to control
[6] = Stability of compound in rat plasma assessed as compound degradation at 10 uM incubated up to 45 mins by HPLC analysis; assay type: ADME, cell-free; conditions: 0.75 h
[7] = AUC (0 to infinity) in male Sprague-Dawley rat at 10 mg/kg, po administered as single dose by LC-MS analysis; assay type: ADME, organism-based; parameters: route oral, time infinity, dose 10 mg/kg; conditions: in vivo
[8] = biological target: CYP2C9 (Homo sapiens, UniProt P11712); experiment: Inhibition of CYP2C9 in human liver microsomes at 10 uM using tolbutamide as substrate preincubated for 5 mins followed by NADPH generating system addition and measured after 120 mins by LC-MS/MS analysis relative to control; assay type: ADME; conditions: probe tolbutamide, time 125 min
[9] = Apparent volume of distribution in male Sprague-Dawley rat at 10 mg/kg, po administered as single dose by LC-MS analysis; assay type: ADME, organism-based; conditions: in vivo
[10] = biological target: T1, CYP2A6 (Homo sapiens, UniProt P11509); experiment: Inhibition of CYP2A6 in human liver microsomes at 10 uM using coumarin as substrate preincubated for 5 mins followed by NADPH generating system addition and measured after 120 mins by LC-MS/MS analysis relative to control; assay type: ADME; conditions: probe coumarin, time 125 min
T1 sequence (P11509 whole entry): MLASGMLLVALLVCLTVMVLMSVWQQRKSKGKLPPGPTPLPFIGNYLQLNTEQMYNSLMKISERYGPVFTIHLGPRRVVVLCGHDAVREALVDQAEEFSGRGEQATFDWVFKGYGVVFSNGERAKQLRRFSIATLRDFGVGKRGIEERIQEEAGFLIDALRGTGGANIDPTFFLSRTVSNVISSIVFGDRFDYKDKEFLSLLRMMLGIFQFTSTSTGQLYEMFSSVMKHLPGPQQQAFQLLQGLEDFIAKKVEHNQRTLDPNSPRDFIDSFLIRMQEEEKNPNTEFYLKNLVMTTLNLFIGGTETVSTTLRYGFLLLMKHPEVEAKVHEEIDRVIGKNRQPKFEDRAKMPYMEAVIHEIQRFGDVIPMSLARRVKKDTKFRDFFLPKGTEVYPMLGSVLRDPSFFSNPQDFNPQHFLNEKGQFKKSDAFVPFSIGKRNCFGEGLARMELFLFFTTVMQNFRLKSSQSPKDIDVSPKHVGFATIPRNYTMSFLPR

[11] = tested on: Plasma; experiment: Antiplatelet activity in rabbit platelet-rich plasma assessed as inhibition of ADP-induced platelet aggregation preincubated for 5 mins followed by ADP addition measured every 1 min for up to 6 mins by microplate reader analysis; assay type: functional, cell-free; conditions: Oryctolagus cuniculus
[12] = biological target: CYP2C19 (Homo sapiens, UniProt P33261); experiment: Inhibition of CYP2C19 in human liver microsomes at 10 uM using S-mephenytoin as substrate preincubated for 5 mins followed by NADPH generating system addition and measured after 120 mins by LC-MS/MS analysis relative to control; assay type: ADME; conditions: probe S-mephenytoin, time 125 min
[13] = biological target: CYP2D6 (Homo sapiens, UniProt P10635); experiment: Inhibition of CYP2D6 in human liver microsomes at 10 uM using dextromethorphan as substrate preincubated for 5 mins followed by NADPH generating system addition and measured after 120 mins by LC-MS/MS analysis relative to control; assay type: ADME; conditions: probe dextromethorphan, time 125 min
[14] = Cmax in male Sprague-Dawley rat at 10 mg/kg, po administered as single dose by LC-MS analysis; assay type: ADME, organism-based; parameters: route oral, dose 10 mg/kg; conditions: in vivo
[15] = Elimination half-life in male Sprague-Dawley rat at 10 mg/kg, po administered as single dose by LC-MS analysis; assay type: ADME, organism-based; conditions: in vivo, read-out: beta t1/2 (converted)
[16] = biological target: T2, CYP1A2 (Homo sapiens, UniProt P05177); experiment: Inhibition of CYP1A2 in human liver microsomes at 10 uM using phenacetin as substrate preincubated for 5 mins followed by NADPH generating system addition and measured after 120 mins by LC-MS/MS analysis relative to control; assay type: ADME; conditions: probe phenacetin, time 125 min
T2 sequence (P05177 whole entry): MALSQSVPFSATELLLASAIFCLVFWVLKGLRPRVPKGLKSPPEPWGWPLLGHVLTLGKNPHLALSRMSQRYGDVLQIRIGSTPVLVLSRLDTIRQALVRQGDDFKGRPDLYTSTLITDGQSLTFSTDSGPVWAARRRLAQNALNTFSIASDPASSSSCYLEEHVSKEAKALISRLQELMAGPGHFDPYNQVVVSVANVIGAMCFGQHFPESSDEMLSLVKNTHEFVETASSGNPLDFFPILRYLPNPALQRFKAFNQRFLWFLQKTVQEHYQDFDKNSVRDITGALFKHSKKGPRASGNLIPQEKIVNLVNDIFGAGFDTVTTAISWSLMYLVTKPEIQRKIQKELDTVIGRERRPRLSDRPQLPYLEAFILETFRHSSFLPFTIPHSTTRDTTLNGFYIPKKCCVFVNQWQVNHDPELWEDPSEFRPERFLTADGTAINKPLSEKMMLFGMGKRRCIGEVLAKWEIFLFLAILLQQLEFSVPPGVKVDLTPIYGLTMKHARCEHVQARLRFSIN

[17] = Cmax in male Sprague-Dawley rat at 10 mg/kg, iv administered as single dose by LC-MS analysis; assay type: ADME, organism-based; parameters: route intravenous, dose 10 mg/kg; conditions: in vivo
[18] = biological target: CYP3A4 (Homo sapiens, UniProt P08684); experiment: Inhibition of CYP3A4 in human liver microsomes at 10 uM using testosterone as substrate preincubated for 5 mins followed by NADPH generating system addition and measured after 120 mins by LC-MS/MS analysis relative to control; assay type: ADME; conditions: probe testosterone, time 125 min
[19] = Tmax in male Sprague-Dawley rat at 10 mg/kg, po administered as single dose by LC-MS analysis; assay type: ADME, organism-based; conditions: in vivo
[20] = Clearance in male Sprague-Dawley rat at 10 mg/kg, po administered as single dose by LC-MS analysis; assay type: ADME, organism-based; conditions: in vivo
[21] = Stability of compound in simulated gastric fluid assessed as parent compound remaining at 10 uM after 12 hrs by HPLC analysis relative to control
[22] = Acute toxicity in Kunming mouse assessed as death at 2000 mg/kg, ig administered as single dose monitored every day up to14 days; assay type: organism-based; conditions: in vivo, po, 336 h, time 14 day

CYP2C9, sequence (P11712 whole entry): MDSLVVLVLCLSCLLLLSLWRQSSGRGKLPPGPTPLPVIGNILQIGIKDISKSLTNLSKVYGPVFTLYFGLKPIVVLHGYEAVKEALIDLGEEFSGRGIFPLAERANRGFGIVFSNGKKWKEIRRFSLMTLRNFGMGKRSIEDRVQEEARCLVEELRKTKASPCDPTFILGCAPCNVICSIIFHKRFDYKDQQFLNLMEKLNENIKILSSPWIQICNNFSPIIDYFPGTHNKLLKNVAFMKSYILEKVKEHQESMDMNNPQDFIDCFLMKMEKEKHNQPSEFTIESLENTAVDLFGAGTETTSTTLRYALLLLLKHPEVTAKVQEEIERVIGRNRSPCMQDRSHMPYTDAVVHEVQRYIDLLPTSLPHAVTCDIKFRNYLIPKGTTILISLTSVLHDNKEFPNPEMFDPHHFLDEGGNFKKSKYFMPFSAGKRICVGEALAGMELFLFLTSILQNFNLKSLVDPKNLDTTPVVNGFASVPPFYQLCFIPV
CYP2D6, sequence (P10635 whole entry): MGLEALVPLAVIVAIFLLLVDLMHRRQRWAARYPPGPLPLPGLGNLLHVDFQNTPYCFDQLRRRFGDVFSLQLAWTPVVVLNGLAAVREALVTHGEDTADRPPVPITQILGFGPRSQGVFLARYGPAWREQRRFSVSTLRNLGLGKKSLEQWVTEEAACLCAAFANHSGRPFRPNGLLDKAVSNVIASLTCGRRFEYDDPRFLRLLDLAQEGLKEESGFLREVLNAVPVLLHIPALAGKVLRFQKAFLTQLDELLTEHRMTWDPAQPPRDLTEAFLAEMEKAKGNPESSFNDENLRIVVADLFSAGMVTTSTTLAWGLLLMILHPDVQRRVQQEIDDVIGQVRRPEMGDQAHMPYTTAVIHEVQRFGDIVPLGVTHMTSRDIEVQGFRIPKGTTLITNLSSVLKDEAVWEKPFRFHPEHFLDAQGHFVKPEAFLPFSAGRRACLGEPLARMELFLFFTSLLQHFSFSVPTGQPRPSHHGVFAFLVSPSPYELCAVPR
CYP2E1, sequence (P05181 whole entry): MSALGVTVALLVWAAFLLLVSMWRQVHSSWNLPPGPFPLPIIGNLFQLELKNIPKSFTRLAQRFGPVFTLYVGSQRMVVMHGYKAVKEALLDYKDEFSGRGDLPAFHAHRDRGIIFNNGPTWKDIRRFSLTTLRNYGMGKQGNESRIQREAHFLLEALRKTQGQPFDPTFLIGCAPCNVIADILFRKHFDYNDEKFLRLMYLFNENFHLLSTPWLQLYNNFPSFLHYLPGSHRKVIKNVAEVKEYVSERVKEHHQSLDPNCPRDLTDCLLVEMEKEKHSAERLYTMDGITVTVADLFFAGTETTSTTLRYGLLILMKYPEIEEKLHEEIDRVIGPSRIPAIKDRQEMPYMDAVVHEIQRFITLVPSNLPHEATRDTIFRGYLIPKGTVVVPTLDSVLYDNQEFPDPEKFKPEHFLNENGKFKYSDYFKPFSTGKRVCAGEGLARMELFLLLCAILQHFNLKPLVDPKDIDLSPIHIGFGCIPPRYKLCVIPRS
CYP3A4, sequence (P08684 whole entry): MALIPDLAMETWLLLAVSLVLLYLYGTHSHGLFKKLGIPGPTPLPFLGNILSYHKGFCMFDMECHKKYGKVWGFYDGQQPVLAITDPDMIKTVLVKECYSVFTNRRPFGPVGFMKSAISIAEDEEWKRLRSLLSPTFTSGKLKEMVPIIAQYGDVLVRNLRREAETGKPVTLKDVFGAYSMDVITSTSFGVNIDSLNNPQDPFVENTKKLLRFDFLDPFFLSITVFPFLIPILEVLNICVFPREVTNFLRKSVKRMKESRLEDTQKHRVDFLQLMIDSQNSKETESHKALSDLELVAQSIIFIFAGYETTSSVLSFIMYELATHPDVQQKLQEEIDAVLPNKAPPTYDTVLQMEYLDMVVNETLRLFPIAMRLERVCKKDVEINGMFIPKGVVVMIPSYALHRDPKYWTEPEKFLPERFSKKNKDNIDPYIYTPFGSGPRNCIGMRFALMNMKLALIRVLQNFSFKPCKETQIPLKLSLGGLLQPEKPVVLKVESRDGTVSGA
CYP2C19, sequence (P33261 whole entry): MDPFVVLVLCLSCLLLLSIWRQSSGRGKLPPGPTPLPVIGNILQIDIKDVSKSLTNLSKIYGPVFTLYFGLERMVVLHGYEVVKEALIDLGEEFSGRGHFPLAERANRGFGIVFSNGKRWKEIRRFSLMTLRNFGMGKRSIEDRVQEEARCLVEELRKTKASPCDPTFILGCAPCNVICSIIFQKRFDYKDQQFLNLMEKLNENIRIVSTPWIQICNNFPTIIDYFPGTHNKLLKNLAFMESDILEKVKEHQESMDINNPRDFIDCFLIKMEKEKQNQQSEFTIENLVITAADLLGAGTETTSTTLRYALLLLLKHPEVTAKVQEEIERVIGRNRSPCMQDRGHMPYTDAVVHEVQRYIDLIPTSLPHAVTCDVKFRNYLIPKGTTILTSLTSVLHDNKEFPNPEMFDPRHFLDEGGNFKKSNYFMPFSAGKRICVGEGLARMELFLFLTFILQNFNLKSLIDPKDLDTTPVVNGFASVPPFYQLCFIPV

| SMILES | inhibition at 2 h, 10 µM [1] | half-life at 0.2 µM [2] | half-life at 0.2 µM [4] | Stability [5] | AUC(0-inf) [7] | inhibition at 2 h, 10 µM [8] | Vz [9] | inhibition at 2 h, 10 µM [10] | IC50 [11] | inhibition at 2 h, 10 µM [12] | inhibition at 2 h, 10 µM [13] | Cmax [14] | half-life [15] | inhibition at 2 h, 10 µM [16] | inhibition at 2 h, 10 µM [18] | Tmax [19] | CL/F [20] | Stability [21] | other results |
| --- | --- | --- | --- | --- | --- | --- | --- | --- | --- | --- | --- | --- | --- | --- | --- | --- | --- | --- | --- |
| Cc1nc(-c2cccc(C#N)c2)n(OCc2ccc(C#N)cc2)c1C(=O)O | 6.79% | > 2 h | > 2 h | 73% | 809 ng·h/mL | 0.41% | 239.6 L/kg | 3.64% | 3.88 µM | 1.97% | 2.42% | 214 ng/mL | 13.1 h | 0.11% | 7.4% | 0.167 h | 261 mL/min/kg | 90% | half-life [3]: 4.89 h; Stabilty [6]: Stable; Cmax [17]: 11200 ng/mL |
| CCOC(=O)c1c(C)nc(-c2cccc(C#N)c2)n1OCc1ccc(C#N)cc1 | 8.68% | 2.01 h | 0.385 h | 93% | 1140 ng·h/mL | 0.024% | 190.56 L/kg | 7.69% | 4.24 µM | 4.52% | 31.7% | 68 ng/mL | 13.8 h | 3.85% | 2.16% | 0.46 h | 207 mL/min/kg | 90% | Activity [22]: Non-Toxic |
